The source of these data is ChEMBL document CHEMBL1157008, “Discovery of 2-{4-[(3S)-piperidin-3-yl]phenyl}-2H-indazole-7-carboxamide (MK-4827): a novel oral poly(ADP-ribose)polymerase (PARP) inhibitor efficacious in BRCA-1 and -2 mutant tumors” (J Med Chem, 2009).

The nature of data set [1]: Antiproliferative activity against human PrEC cells after 6 to 7 days by cell titer-blue assay. (Alamar Blue is a resazurin reagent that responds to reducing activity.)
Another data set in a line: cells. As to conditions: Homo sapiens, MDA-MB-436, 144 h.
Data set [2] has as its system HeLa. The experiment in a line: Antiproliferative activity against human HeLa cells expressing wild type BRCA1 after 7 days by cell titer-blue assay. The class given is functional. The settings on record: 168 h.
Data set [3] concerns the target T1, PARP 1, 2 and 3 (Homo sapiens, UniProt P09874+Q9Y6F1+Q9UGN5). As to conditions: HeLa.
A short description of data set [4]: Oral bioavailability in rat. The class given is ADME, organism-based. The settings on record: in vivo.
The nature of data set [5]: Intrinsic clearance in mouse liver microsomes assessed per mg of protein up to 90 mins. Type of data set: ADME, Microsome.
Data set [6] in a line: Antiproliferative activity against HMEC after 6 to 7 days by cell titer-blue assay. As to conditions: human, HMEC cells.
The next data set deals with T2, Cytochrome P450 1A2 (Rattus norvegicus, UniProt P04799).
T2 sequence (P04799 whole entry): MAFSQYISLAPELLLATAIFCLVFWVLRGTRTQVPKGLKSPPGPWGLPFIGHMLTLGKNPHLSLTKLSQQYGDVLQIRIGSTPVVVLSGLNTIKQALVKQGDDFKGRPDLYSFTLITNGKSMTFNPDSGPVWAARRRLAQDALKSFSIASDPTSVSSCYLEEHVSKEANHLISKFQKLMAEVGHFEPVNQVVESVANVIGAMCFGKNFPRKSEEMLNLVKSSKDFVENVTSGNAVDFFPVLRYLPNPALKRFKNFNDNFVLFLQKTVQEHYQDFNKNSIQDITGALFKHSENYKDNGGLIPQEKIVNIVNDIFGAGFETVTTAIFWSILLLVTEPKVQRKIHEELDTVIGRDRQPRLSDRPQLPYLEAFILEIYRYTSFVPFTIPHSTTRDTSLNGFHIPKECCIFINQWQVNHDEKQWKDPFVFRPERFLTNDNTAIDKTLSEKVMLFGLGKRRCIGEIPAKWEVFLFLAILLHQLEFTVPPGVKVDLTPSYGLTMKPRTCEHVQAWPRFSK
In words: (§1) Intrinsic clearance in rat liver microsomes assessed per mg of protein up to 60 mins in presence of rat recombinant CYP1A2. The class given is ADME, Microsome. The settings on record: microsomes, 1 h. Background: Microsomes from liver hold many membrane-bound enzymes, among them those of drug oxidation.

The test system of data set [7] is HeLa. The experiment in a line: Antiproliferative activity against BRCA1 deficient human HeLa cells after 7 days by cell titer-blue assay. The class given is functional. The settings on record: 168 h.
Data set [8] is described as follows: Intrinsic clearance in rat liver microsomes assessed per mg of protein up to 90 mins. Type of data set: ADME, Microsome.
In data set [9] the test system is MDA-MB-436. As to conditions: Homo sapiens, 100 mg/kg.
Description: Antitumor activity against human MDA-MB-436 cells expressing BRCA1 5396 + 1G>A mutant xenografted in CD1 mouse assessed as tumor regression at 100 mg/kg, po qd for 33 days
Data set [10] relates to MDA-MB-436. The settings on record: Homo sapiens, 50 mg/kg.
Description: Antitumor activity against human MDA-MB-436 cells expressing BRCA1 5396 + 1G>A mutant xenografted in CD1 mouse assessed as tumor regression at 50 mg/kg, po bid for 33 days
Data set [11] is described as follows: Plasma clearance in rat. The class given is ADME, organism-based.
The subject of a further data set is CAPAN-1. The experiment in a line: cells. As to conditions: Homo sapiens, CAPAN-1, 312 h.
In data set [12] the target is T1, PARP 1, 2 and 3. In words: Inhibition of PARP in hydrogen peroxide-induced human HeLa cells assessed as inhibition DNA-damage-induced PARylation. The class given is cell-based.
Data set [13] is described as follows: Intrinsic clearance in rat lung microsomes assessed per mg of protein in presence of NADPH. The class given is ADME, Microsome.
The nature of data set [14]: Intrinsic clearance in rat intestine microsomes assessed per mg of protein in presence of NADPH. Type of data set: ADME, Microsome.
A short description of data set [15]: Biodistribution in iv dosed rat urine within 24 hrs. The class given is ADME, organism-based. The settings on record: in vivo.
The target in the next data set is T3, CYP1A2 (Rattus norvegicus, UniProt P04799).
T3 sequence (P04799 whole entry): T2 sequence (P04799 whole entry)
Described as §1. The class given is ADME, Microsome. As to conditions: rat liver microsomes with rat recombinant CYP1A2.

Data set [16] can be described thus: Intrinsic clearance in rat liver microsomes assessed per mg of protein in presence of NADPH. Type of data set: ADME, Microsome.
The subject of data set [17] is HeLa. In words: Selectivity index, ratio of CC50 for BRCA1 proficient human HeLa cells to CC50 for BRCA1 deficient human HeLa cells. The class given is functional.
Data set [18] is described as follows: Metabolic stability in rat heart microsomes assessed as compound degradation in presence of NADPH. The class given is ADME.
The target of data set [19] is Poly [ADP-ribose] polymerase 1 (Homo sapiens, UniProt P09874). The experiment in a line: Inhibition of human PARP1 by SPA.
Data set [20] is described as follows: Intrinsic clearance in rat kidney microsomes assessed per mg of protein in presence of NADPH. The class given is ADME, Microsome.
A short description of data set [21]: Biodistribution in iv dosed rat urine assessed as tert-butyl (3S)-3-{4-[7-(aminocarbonyl)-2H-indazol-2-yl]phenyl}piperidine-1-carboxylate level within 24 hrs. The class given is ADME, organism-based. As to conditions: in vivo.

Active and inactive are the calls of the source. The calls are words filed in the database; no cut-off is given here.

Chain of Poly [ADP-ribose] polymerase 1 (P09874 whole entry): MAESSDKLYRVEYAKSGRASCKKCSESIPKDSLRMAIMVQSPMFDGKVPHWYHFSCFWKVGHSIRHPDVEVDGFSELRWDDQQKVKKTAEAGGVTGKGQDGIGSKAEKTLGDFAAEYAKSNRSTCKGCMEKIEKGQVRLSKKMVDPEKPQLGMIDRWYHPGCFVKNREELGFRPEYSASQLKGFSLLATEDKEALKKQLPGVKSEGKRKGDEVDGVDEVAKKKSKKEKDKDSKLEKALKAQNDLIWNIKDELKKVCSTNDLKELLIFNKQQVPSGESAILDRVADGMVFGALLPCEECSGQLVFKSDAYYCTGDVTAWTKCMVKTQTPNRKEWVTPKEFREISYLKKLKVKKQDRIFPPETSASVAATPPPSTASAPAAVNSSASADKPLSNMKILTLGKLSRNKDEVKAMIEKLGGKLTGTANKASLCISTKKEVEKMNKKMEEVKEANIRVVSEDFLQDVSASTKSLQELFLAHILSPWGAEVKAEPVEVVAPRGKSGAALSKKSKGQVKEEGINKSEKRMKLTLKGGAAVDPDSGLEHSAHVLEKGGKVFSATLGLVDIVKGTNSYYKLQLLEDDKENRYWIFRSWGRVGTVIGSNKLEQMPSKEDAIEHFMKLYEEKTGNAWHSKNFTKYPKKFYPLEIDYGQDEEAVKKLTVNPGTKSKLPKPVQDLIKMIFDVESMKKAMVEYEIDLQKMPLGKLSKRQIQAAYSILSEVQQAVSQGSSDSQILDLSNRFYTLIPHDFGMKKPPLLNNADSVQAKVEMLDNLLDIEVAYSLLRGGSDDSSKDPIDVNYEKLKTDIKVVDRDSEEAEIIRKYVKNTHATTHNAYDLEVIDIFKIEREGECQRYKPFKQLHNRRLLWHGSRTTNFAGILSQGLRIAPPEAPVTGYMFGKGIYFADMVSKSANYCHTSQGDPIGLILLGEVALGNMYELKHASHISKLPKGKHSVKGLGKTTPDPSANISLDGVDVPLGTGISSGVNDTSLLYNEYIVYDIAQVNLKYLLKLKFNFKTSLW
Description for CAPAN-1: Antiproliferative activity against human Capan1 cells expressing BRCA2 6174delT mutation and loss of wild-type allele after 13 days by cell titer-blue assay

The term CC50 denotes the concentration at which the toxic effect on the cells reaches its halfway point. As a reminder, the EC90 is the concentration at which the effect reaches the 90% level. Broadly, the bioavailability is dose-corrected exposure relative to a reference, in per cent. A lower bioavailability goes with poor availability. One may read the microsomal CLint as a measure of how fast metabolising enzymes remove a compound, apart from limits set by blood flow. For orientation: clearance means a measure of how efficiently the substance is removed, as volume per time. Regarding `NC(=O)c1cccc2cn(-c3ccc([C@@H]4CCCNC4)cc3)nc12` [NIRAPARIB], the 50% cytotoxic concentration (CC50) was above 5 µM in [1]; 18 nM in “cells”; 0.86 µM in the data set on HeLa [2]; above 5 µM in [6]; 33 nM with HeLa [7]; 90 nM in the data set with CAPAN-1. Moreover, at PARP 1, 2 and 3 [3], the 90% effect level (EC90) was put at 45 nM. The molecule further gave a bioavailability in data set [4] of 65%. Also, the microsomal CLint came out at 4 µL/min/mg in [5] and 16 µL/min/mg in data set [8]. Also, the CL on Cytochrome P450 1A2 turned out to be 0.3 µL/min/mg. The inhibition result in the data set on MDA-MB-436 [9] and with MDA-MB-436 [10] was “Active” throughout. Also, in [11], the clearance is 28 mL/min/kg.
Broadly, the EC50 is the concentration at which the effect is half-maximal. A word on the IC50: it is the concentration at which inhibition is half-maximal. High values mean lower potency, low ones higher potency. For `CNCc1ccc(-n2cc3cccc(C(N)=O)c3n2)cc1`, the EC50 on PARP 1, 2 and 3 [12] turned out to be 68 nM. The CC50 is 5.4 µM in the data set on HeLa [2] and 460 nM in the data set on HeLa [7]. The molecule also registered an EC90 at PARP 1, 2 and 3 [3] of 740 nM. Moreover, in data set [4], the bioavailability came out at 23%. For the same molecule, the microsomal CLint turned out to be 22 µL/min/mg in [13]; 5 µL/min/mg in data set [14]; 3 µL/min/mg in data set [5]; 6 µL/min/mg at CYP1A2; 28 µL/min/mg in data set [16]; 28 µL/min/mg in [8]. Moreover, the microsomal CLint in [20] came to 22 µL/min/mg. Also, the Drug uptake in data set [15] came out at 80 %ID; in [21] it was 50 %ID. Besides, the “Selectivity Index” value in the data set with HeLa [17] is 10. The Stability result in data set [18] is reported as “Stable”. This molecule displayed a clearance in data set [11] of 220 mL/min/kg. Further, the concentration for half-maximal inhibition (IC50) in [19] was found to be 3.8 nM.
